Values joined by “and” are separate entries in the source; they are usually repeats but may differ in a detail not shown here. Equal values may be shown once. Read-outs that look alike come from different tables or passages of the source.
Key:
[1] = test system: KP4 cells comprising a PIK3CA LOF mutation; test: cell viability assay in isogenic KP4 lines (PIK3CA LOF, wild type, PIK3CB knocked out); format: cell-based
Method: To determine the effects of PI3K inhibitors in tumor cells harboring PIKCA mutations, cell lines with engineered PIK3CA were created and administered multiple PI3K inhibitors. In particular, an engineered line comprising a PIK3CA loss of function (LOF) mutant was compared to its parental line (PIK3CA wild type), and a cell line with PIK3CB knocked out. Various PI3K inhibitors were administered to each cell line.
To create cells with a loss of function PIK3CA mutation (PIK3CA-LOF mutant), the PIK3CA gene was knocked out in KP4 cells using CRISPR genome editing (kits sold by Synthego). The parental line of KP4 cells comprising PIK3CA wild type was used as a comparator, and KP4 cells with PIK3CB knocked out were used as a control. A cell viability assay was performed by treating the three isogenic lines with various concentrations of three different PI3K inhibitors: GSK-2636771, a selective PI3K-beta (PIK3CB) inhibitor, AZD-8186, a PI3K-beta/delta (PIK3CB, PIK3CD) inhibitor, and seletalisib, a selective PI3K-delta (PIK3CD) inhibitor.

PI3Kδ (p110δ) = details: cited from earlier work
[2] = test system: PBMCs or other cell types; details: cited from earlier work
PI3Kα (p110α) = details: cited from earlier work
PI3Kβ (p110β) = details: cited from earlier work
PI3Kγ (p110γ) = details: cited from earlier work
[3] = test system: PIK3CA-mutant line BT474c; details: read-out: potency in BT474c; cited from earlier work
[4] = cited from earlier work
HCC70 = details: cited from earlier work
BT474c cells = details: read-out: IC50, cell growth; cited from earlier work
PC3 = details: cited from earlier work
MDA-MB-468 cells = details: read-out: GI50, proliferation; cited from earlier work
[5] = test system: pAKT (Ser473) in PTEN-null MDA-MB-468 cells; details: read-out: IC50, PI3Kβ-dependent activation of pAKT (Ser473); cited from earlier work
HID28 = HID28 explant model; cited from earlier work
[6] = test system: pAKT (Ser473) in JEKO cells; details: read-out: IC50, IgM-stimulated phosphorylation of pAKT (Ser473); cited from earlier work
442 other kinases = test system: 442 other kinases; parameters: dose or concentration left out as unconfirmed; details: cited from earlier work
[7] = test system: 74 protein and lipid kinases; details: cited from earlier work
JEKO cells = details: IgM stimulated JEKO cells; read-out: IC50, cell growth; cited from earlier work
MDA-MB-468 = details: end of study, cited from earlier work
[8] = test system: PDX models with predicted LOF mutations in PIK3CA; test: Example 7 patient derived xenograft (PDX) study; format: in vivo, NSG mice; details: 10 mg/kg or 3 mg/kg once daily by oral gavage
[9] = cited from earlier work; remark: listed apart in the source
[10] = compared to KP4 PIK3CA wild type or PIK3CB LOF, FIG. 2
[11] = compared to KP4 PIK3CA wild type, FIG. 3
[12] = read-out: IC50 for PI3Kβ (p110β)

## [O-][n+]1cccc(-c2nc3c(Cl)cccc3cc2[C@@H](Nc2ncnc3cccnc23)C(F)(F)F)c1 [Seletalisib]
[1]; [10]
  cancer cell inhibition in KP4 PIK3CA LOF cells: no improvement in cancer cell inhibition
PI3Kδ (p110δ)
  IC50: 12 nM
[2]
  cytotoxicity: No indications of cytotoxicity

## C[C@H](Nc1ncnc2[nH]cnc12)c1nc2ccc(F)cc2c(=O)n1-c1ccccc1 [Acalisib]
[1]; [11]
  cancer cell inhibition in KP4 PIK3CA LOF cells: reduced levels of cancer cell inhibition
PI3Kβ (p110β); unit inferred, read-out: IC50 against PI3Kβ
  IC50: 3380 nM
PI3Kδ (p110δ)
  IC50: 12.7 nM and 14 nM
  selectivity over the other class 1 PI3K enzymes: greater than 100 fold

## C[C@H]1Cc2ccccc2N1C(=O)Cc1nc(=O)cc(N2CCOCC2)[nH]1 [SAR-260301]
PI3Kα (p110α)
  IC50: 1540 nM
[1]; [11]
  cancer cell inhibition in KP4 PIK3CA LOF cells: favorable increases in cancer cell inhibition
PI3Kβ (p110β); [12]
  IC50: 23 nM
PI3Kδ (p110δ)
  IC50: 469 nM
PI3Kγ (p110γ)
  IC50: 10000 nM

## CC[C@H](Nc1ncnc2[nH]cnc12)c1nc2cccc(F)c2c(=O)n1-c1ccccc1 [Idelalisib]
PI3Kδ (p110δ); cell-free assays
  IC50: 2.5 nM

## C[C@@H](Nc1cc(F)cc(F)c1)c1cc(C(=O)N(C)C)cc2c(=O)cc(N3CCOCC3)oc12 [AZD-8186, (R)-8-(1-(3,5-Difluorophenylamino)ethyl)-N,N-dimethyl-2-morpholino-4-oxo-4H-chromene-6-carboxamide]
PI3Kα (p110α)
  IC50: 35 nM
[3]
  IC50: 752 nM
[4]; animals bearing PC3 tumors, co-dosed with Cyt P450 inhibitor ABT
  exposure: significantly increased exposure
[4]; mouse, in vivo
  half-life: short half-life
[1]; [10]
  cancer cell inhibition in KP4 PIK3CA LOF cells: favorable increases in cancer cell inhibition
PI3Kβ (p110β); [12]
  IC50: 4 nM
HCC70; HCC70, 25 mg/kg twice a day
  tumor growth inhibition: 62%
HCC70; HCC70, 50 mg/kg twice a day
  tumor growth inhibition: 85%
BT474c cells
  IC50: 1980 nM
PC3; PC3, 25 mg/kg twice a day
  maximal growth inhibition: 59%
PC3; PC3, 30 mg/kg AZD-8186 co-dosed with Cyt P450 inhibitor ABT
  reduction in tumor growth: 86%
PC3; PC3, 50 mg/kg twice a day
  maximal growth inhibition: 64%
MDA-MB-468 cells
  GI50: 65 nM
PI3Kδ (p110δ)
  IC50: 12 nM
[5]
  IC50: 3 nM
HID28
  growth inhibition: 79%
[6]
  IC50: 17 nM
PI3Kγ (p110γ)
  IC50: 675 nM
442 other kinases
  binding to 442 other kinases in KinomeScan screen: no significant binding
[7]
  selectivity for PI3Kβ and δ versus 74 protein and lipid kinases: > 100 fold
JEKO cells
  IC50: 228 nM
MDA-MB-468; MDA-MB-468, 25 mg/kg twice a day
  tumor growth inhibition: 47%
MDA-MB-468; MDA-MB-468, 50 mg/kg twice a day
  tumor growth inhibition: 76%

## Cc1c(Cn2c(C)nc3c(C(=O)O)cc(N4CCOCC4)cc32)cccc1C(F)(F)F [GSK-2636771]
PI3Kα (p110α)
  selectivity for p110β over p110α: 900 fold
[1]; [10]
  cancer cell inhibition in KP4 PIK3CA LOF cells: favorable increases in cancer cell inhibition
PI3Kβ (p110β); [12]
  IC50: 5.2 nM
PI3Kδ (p110δ)
  selectivity for p110β over p110δ: 10 fold
PI3Kγ (p110γ)
  selectivity for p110β over p110γ: 900 fold
[8]
  survival outcomes: significantly improved survival outcomes
  tumor growth: significantly reduced tumor growth

## Cc1nc(NC(=O)N2CCC[C@H]2C(N)=O)sc1-c1ccnc(C(C)(C)C(F)(F)F)c1 [Alpelisib]
PI3Kα (p110α); cell-free assay
  IC50: […]
PI3Kβ (p110β); cell-free assay
  effect on PI3Kβ: minimal effect
PI3Kδ (p110δ); cell-free assay
  effect on PI3Kδ: minimal effect
PI3Kγ (p110γ); cell-free assay
  effect on PI3Kγ: minimal effect

## Cc1cc(C(C)Nc2ccccc2)c2nc(N3CCOCC3)cc(=O)n2c1 (centres unmarked) [TGX-221]
[9]
  cell permeability: high cell permeability
[1]; [11]
  cancer cell inhibition in KP4 PIK3CA LOF cells: favorable increase in cancer cell inhibition
PI3Kβ (p110β)
  selectivity over the other PI3K enzymes (e.g., PI3Kα): […]
PI3Kβ (p110β); [12]
  IC50: […]

## Cc1cc([C@@H](C)Nc2ccccc2C(=O)O)c2nc(N3CCOCC3)cc(=O)n2c1 [AZD-6482]
[1]; [11]
  cancer cell inhibition in KP4 PIK3CA LOF cells: favorable increases in cancer cell inhibition
PI3Kβ (p110β); [12]
  IC50: […]

Source: patent US20260284064A1, “PI3K INHIBITORS FOR THE TREATMENT OF CANCER” (priority 2023, published 2026)
